ChEMBL document CHEMBL3822386, “New sesquiterpene lactones, vernonilides A and B, from the seeds of Vernonia anthelmintica in Uyghur and their antiproliferative activities” (Bioorg Med Chem Lett, 2016)

Key:
Format in all cases: functional, cell-based
[1] = system: MDA-MB-231; assay: Antiproliferation activity against human MDA-MB-231 cells assessed as reduction in cell viability after 72 hrs by WST-8 assay; conditions: MDA-MB-231, 72 h
[2] = system: HeLa; assay: Antiproliferation activity against human HeLa cells assessed as reduction in cell viability after 72 hrs by WST-8 assay
[3] = system: A549; assay: Antiproliferative activity against human A549 cells assessed as reduction in cell viability after 72 hrs by WST-8 assay; conditions: A549, 72 h

| IC50 [1] [nM] | IC50 [2] [nM] | IC50 [3] [nM] | Compound |
| --- | --- | --- | --- |
| 9500 | 16300 | 21600 | C=C[C@@]12COC(=O)C(=C)[C@@H]1[C@H]1OC(=O)C(=C)[C@@H]1[C@@H](OC(=O)C(=C)COCC)C2 |
| 1350 | 2160 | 1520 | C=C[C@@]12COC(=O)C(=C)[C@@H]1[C@H]1OC(=O)C(=C)[C@@H]1[C@@H](OC(=O)C(=C)COC(C)=O)C2 |
| 350 | 400 | 700 | C=C[C@]1(C)C[C@H](OC(=O)C(=C)CO)[C@H]2C(=C)C(=O)O[C@@H]2[C@H]1C(=C)C=O |
| 300 | 200 | 400 | C=C[C@@]12COC(=O)C(=C)[C@@H]1[C@H]1OC(=O)C(=C)[C@@H]1[C@@H](OC(=O)C(=C)CO)C2 [VERNODALIN] |

Continued, molecule first:

| Compound | IC50 [1] [nM] | IC50 [2] [nM] | IC50 [3] [nM] |
| --- | --- | --- | --- |
| C=C[C@@]12COC(=O)C(=C)[C@@H]1[C@H]1OC(=O)C(=C)[C@@H]1[C@@H](O)C2 [VERNOLEPIN] | 1900 | 2200 | 16900 |
| C=C[C@]1(C)C[C@H](OC(=O)C(=C)COC(C)=O)[C@H]2C(=C)C(=O)O[C@@H]2[C@H]1C(=C)C=O | 3200 | 4160 | 2950 |
| C=C(CO)C(=O)O[C@H]1CC(=C)[C@@H]2CC[C@@H](CO)[C@@H]2[C@H]2OC(=O)C(=C)[C@@H]21 | 250 | 100 | 1000 |
